In test [1] the test system is human melanoma cell lines. Nature of the test: response to palbociclib treatment in 48 melanoma cell lines. The format is cell-based. An excerpt:
Melanoma, a malignancy originating in pigment-producing melanocytes, is generally resistant to conventional treatments such as radiotherapy or chemotherapy. Molecular targeted therapeutics against BRAF and MEK have shown marked efficacy for patients with metastatic melanoma. However these targeted therapies have a limited duration of response. […] Our main goal in this study was to evaluate the therapeutic potential of palbociclib in a large panel of human melanoma cell lines to identify potential biomarkers of sensitivity and resistance. Material and Methods: We evaluated the response palbociclib treatment in 48 melanoma cell lines. A comprehensive biomarker screen was performed using mutation and gene expression (Agilent) data. The mechanism of action of the drug, phospho-Rb and senescence, was investigated by western blot (WB) analysis. Effects on the cell cycle and apoptosis were study by flow cytometry.

The test system of test [2] is 17 gastric and 27 colon cancer cell lines. Nature of the test: dose response in gastric and colon cancer cell line panels. The format is cell-based. The conditions noted are these: Homo sapiens; 14 of the 44 gastric and colon cancer cell lines tested; read-out: anti-proliferative activity (concentration). The protocol:
Methods: Panels of 17 gastric and 27 colon cancer cell lines were exposed in vitro to palbociclib over various concentrations to generate dose response curves. Analysis of variance (ANOVA) was used to identify differentially expressed genes between sensitive and resistant cell lines. Genes identified by ANOVA and effects of palbociclib on pRB were analyzed via western blot.

The subject of test [3] is colon cancer. The settings on record: patients; cited from earlier work.

Read-outs that look alike come from different tables or passages of the source.

As to `CC(=O)c1c(C)c2cnc(Nc3ccc(N4CCNCC4)cn3)nc2n(C2CCCC2)c1=O` [palbociclib], the IC50 in test [1] (48 melanoma cell lines, read-out: IC50, lower end of range across melanoma cell lines) is 28 nM; in test [1] (48 melanoma cell lines, read-out: IC50, upper end of range across melanoma cell lines) it was greater than 1000 nM; in test [1] (subset (14/48) of melanoma cell lines, clinically achievable concentrations, read-out: IC50 of cell lines classified as sensitive) it was less than 150 nM; in test [2], less than 150 nM.

Take `CCN1CCN(Cc2ccc(Nc3ncc(F)c(-c4cc(F)c5nc(C)n(C(C)C)c5c4)n3)nc2)CC1` [LY2835219]: in test [3], the clinical benefit result was “beneficial in colon cancer”.

The values above are taken from patent US20190292605A1, “Biomarkers of Response to Cyclin D-CDK4/6 Targeted Therapies in Cancer” (The Regents of the University of California, priority 2014, published 2019).
